Test results reported in the METLIN SMRT retention time set (Domingo-Almenara et al. 2019).

test: gradient 5% acetonitrile 3 min, to 50% in 2 min, to 85% in 15 min, held 3 min, 100 µL/min; details: column: Zorbax Extend-C18 2.1 x 50 mm; eluents: water / acetonitrile, 0.1% formic acid
Outline: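 Data were gathered over 3 months by HPLC coupled to a quadrupole time-of-flight mass spectrometer, operated in positive and negative ionization mode. Mixtures of ~100 pure standards ran on a Zorbax Extend-C18 column (2.1 × 50 mm, 1.8 μm) at 100 μL/min, with water and acetonitrile each containing 0.1% formic acid and dead and dwell volumes of 40 μL and 900 μL. Retention time was read from adduct peaks picked by computer and checked manually.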

| SMILES | RP-LC retention time [s] |
| --- | --- |
| O=C(NCCCN1CCOCC1)c1cc2n(n1)CCCN(Cc1ccccc1)C2=O | 594 |
| O=C(c1sc2ncccc2c1-n1cccc1)N1CCN(c2ncccn2)CC1 | 866 |
| CCc1nc2c(=O)n(CC(=O)N3CCN(c4ccc(Cl)cc4)CC3)nc(C)c2s1 | 854 |
| CCCOc1ccc(-c2nc(N3CCC(C)CC3)c3ccccc3n2)cc1 | 1010 |
| CC1CCCN(C(=O)c2ccc3ncnc(N4CCCC4)c3c2)C1 (stereo not given) | 640 |
| CCn1c(=O)c(N2CCN(C(=O)Nc3cc(Cl)c(OC)cc3OC)CC2)nc2cccnc21 | 982 |
| O=C(Nc1nc(-c2ccc3ccccc3c2)cs1)c1cccc(Cn2cc(Cl)cn2)c1 | 1140 |
| COc1cccc(-n2c(=O)c(C(=O)Nc3cc(F)cc(F)c3)c(O)c3cccnc32)c1 | 1210 |
| COc1ccc(S(=O)(=O)N2[C@H]3CC[C@@H]2c2cnc(C)nc2C3)cc1 | 693 |
| COc1ccc(CNC(=O)c2ccc(N3CCCS3(=O)=O)cc2)cc1OC | 652 |
| Brc1ccc(C(c2nnc(-c3ccccc3)o2)N2CCN(c3ncccn3)CC2)cc1 (stereo not given) | 1170 |
| COCCN1C(=O)[C@H]2CN(Cc3cccc(Cl)c3F)C[C@H]2C1=O | 685 |
| CCOc1ccc(NC(=O)c2cnn(-c3ccc(Br)cc3)c2)cc1 | 1030 |
| CCOC(=O)Cc1csc(NC(=O)C2CCN(C(C)=O)CC2)n1 | 631 |
| CNC(=O)N1CCC(OC2CCN(Cc3ccccc3)CC2)CC1 | 555 |
| CS(=O)(=O)N1C[C@H]2CCN(Cc3ccc(F)cc3F)C[C@H]21 | 584 |
| CC(C)CN(CC(C)C)c1nc(-c2ccccc2)nc2ccccc12 | 951 |
| Cc1nn(-c2ccc(N3CCOCC3)nn2)c(C)c1CCC(=O)N1CCN(c2ccccn2)CC1 | 578 |
| Cn1c(=O)n(C)c2cc(Nc3cc(N4CCOCC4)ncn3)ccc21 | 566 |
| Nc1nc2c(cnn2CCc2ccccc2)c2nc(-c3ccco3)nn12 | 880 |
| CCOC(=O)c1cccc(NC(=O)Nc2cccc(-c3ccc(N4CCOCC4)nn3)c2)c1 | 742 |
| CC(C)OCCCNC(=O)C1CCCCC(=O)N1 (stereo not given) | 617 |
| CCc1ccc(-c2cc3c(=O)n(Cc4noc(CN5CCOCC5)n4)ccn3n2)cc1 | 813 |
| O=C(Nc1nnc(SCCN2CCOCC2)s1)C1CCC1 | 544 |
| CCOc1ccc(NC(=O)Cn2ncc3c(c2=O)N(C2CC2)C(=O)CS3)cc1 | 671 |
| CC(C)(C)NC(=O)NC1CCN(C(=O)c2ccccc2)C1 (stereo not given) | 683 |
| COc1ccc(Cl)cc1S(=O)(=O)N1CCCC(C(=O)NCCCOC(C)C)C1 (stereo not given) | 855 |

| SMILES | RP-LC retention time [s] |
| --- | --- |
| O=C(c1ccccc1)C1N=NCC1c1ccc(Cl)cc1 (stereo not given) | 1040 |
| CCN1C(=O)c2cc(C(=O)NCc3ccc(F)cc3)nn2CC1(C)C(=O)NC1CCCC1 (stereo not given) | 734 |
| CCN1CCN(C(=O)c2sc(-c3cn(C(C)C)c4ncccc34)nc2C)CC1 | 612 |
| CC(C)Oc1ccc(-c2noc(Cc3nnc(-c4ccccc4)o3)n2)cc1 | 1100 |
| O=C1CC(c2noc(Cc3ccc(F)cc3)n2)CN1c1ccc(F)cc1 (stereo not given) | 933 |
| O=C(NC1CCCCC1)C1CCN(C(=O)c2cc(-c3ccncc3)n[nH]2)CC1 | 590 |
| Cc1ccc2c(c1)N(S(C)(=O)=O)CCC(C(=O)NC1CC3CCC1C3)O2 (stereo not given) | 941 |
| CC1CCCCN1CCCNC(=O)Cn1c(=O)c2cccn2c2ccc(F)cc21 (stereo not given) | 611 |
| CCC(C)NC(=O)N1CCN(Cc2nc3cc(C(=O)N(CC)CC)ccc3o2)CC1 (stereo not given) | 619 |
| O=C(CC1CCOCC1)N1CCN(C(=O)c2ccco2)CC1 | 612 |
| Cc1cccc(NC(=O)N2CCC(CN3CCCC(C)C3)CC2)c1C (stereo not given) | 620 |
| Nc1cc(C2CCN(C(=O)/C=C/c3ccccc3)CC2)no1 | 724 |
| COc1ccc(C2C(=O)N(C3CCCCC3)CC(=O)N2Cc2ccc3c(c2)OCO3)cc1 (stereo not given) | 893 |
| CC(C)c1noc(-c2cccnc2N2CCCN(C(=O)NCc3ccccc3)CC2)n1 | 920 |
| O=C(c1c(F)cccc1F)N1CCN=C1N1CCCCC1 | 623 |
| CC(C)Cc1nc(C2CN(C(=O)CC3CCCC3)CC23CCCC3)no1 (stereo not given) | 1210 |
| COCC1CN(C2CCC2)CC12CCN(C(=O)C1CCN(C(C)=O)CC1)CC2 (stereo not given) | 561 |
| CCc1cc(C(=O)Nc2ccc(Cl)cc2)nc2ccnn12 | 1080 |
| O=C(c1ccc2ccnc(N3CCN(c4ccccc4)CC3)c2c1)N1CCN(C2CCCCC2)CC1 | 625 |
| CCOCCCNC(=O)N1CCCC(C)(C(=O)NCc2ccc(C)cc2)C1 (stereo not given) | 740 |
| COc1ccc(-c2nc3cnccn3c2Nc2ccc3c(c2)OCCO3)cc1OC | 717 |
| CNCc1ccc(-c2[nH]c3cc(F)cc4c3c2CCNC4=O)cc1 | 642 |
| O=C(NCCN1CCCCCC1)C1CCCN(c2ncc(-c3cccc(F)c3)cn2)C1 (stereo not given) | 715 |
| O=C(Cc1ccsc1)NCCn1c(=O)n(Cc2ccc(F)cc2)c2cccnc21 | 781 |
| CN(C)CC1(O)CCC2(CCN(C(=O)c3ccsc3)CC2)CC1 | 576 |
| CC(C(=O)NCCCN1CCC(N2CCCCC2)CC1)n1c(=O)c(C(F)(F)F)nc2ccccc21 (stereo not given) | 595 |
| CC1(C(=O)N2CCN(c3ccccn3)CC2)CCCCC(=O)N1 (stereo not given) | 552 |

The next lines start with the values.

| RP-LC retention time [s] | SMILES |
| --- | --- |
| 872 | CSc1ccc(CNS(=O)(=O)c2cc3c(s2)CCN(C(=O)C2CC2)C3)cc1 |
| 865 | CC(C)N1CCCn2cc(S(=O)(=O)Nc3cccc(C(F)(F)F)c3)cc2C1=O |
| 597 | CCOc1ccccc1C1C(C#N)=C(N)Oc2cc(C)n(CCN(C)C)c(=O)c21 (stereo not given) |
| 831 | Cc1ccc(NC(=O)C2CC(=O)N(c3n[nH]c4cccc(F)c34)C2)cc1C (stereo not given) |
| 820 | COc1cccc(C2CC(c3cccc(NS(C)(=O)=O)c3)=NN2C(=O)C(C)(C)C)c1O (stereo not given) |
| 786 | Cc1noc(C)c1-c1ccc(S(=O)(=O)NC2CC2)cc1 |
| 787 | CN(C)c1ccc(-c2nc3cnccn3c2Nc2ccc(F)cc2)cc1 |
| 876 | Cc1cccc(CNC(=O)C2(C)Oc3cccnc3N(C)C2=O)c1 (stereo not given) |
| 720 | COc1ccccc1C(=O)Nc1nnc(C2CC(=O)N(c3ccccc3)C2)o1 (stereo not given) |
| 850 | Cc1ccc(-c2cc3n(n2)CCCN(C(=O)c2n[nH]c4ccccc24)C3)cc1 |
| 734 | Cc1ccc(NC(=O)Cn2cnc3nc4c(cc3c2=O)CCCC4)c(C)c1 |
| 977 | Cc1cccc(CS(=O)(=O)N2CC(c3nc(Cc4ccccc4)no3)C2)c1 |
| 877 | Cc1ccccc1CNC(=O)C1CCCN(S(=O)(=O)c2c[nH]c(C(=O)N3CCCC3)c2)C1 (stereo not given) |
| 1140 | Cc1sc(-c2cc(C(F)(F)F)on2)cc1S(=O)(=O)NCc1ccccc1Cl |
| 714 | Cc1nn(C)c(C)c1S(=O)(=O)N1CCc2nn(Cc3ccccc3)c(=O)n2CC1 |
| 1210 | Cc1c(Cl)cccc1S(=O)(=O)N1CCc2nc(-c3ccccc3)ncc2C1 |
| 943 | COc1cccc(Cn2nc3c(S(=O)(=O)N4CCc5ccccc5C4)cccn3c2=O)c1 |
| 661 | COc1ccc(-c2cc3nn(CC(=O)Nc4ccccc4)c(=O)n3c(C)n2)cc1 |

| RP-LC retention time [s] | SMILES |
| --- | --- |
| 826 | CCOc1ccc(C(=O)Nc2ccc3c(c2)Sc2ncccc2C(=O)N3C)cc1 |
| 1180 | CC(C)(C)c1csc(-c2csc(S(=O)(=O)NCc3cccs3)c2)n1 |
| 1240 | COC(=O)c1ccc2c(=O)n(-c3ccccc3)c(N3CCCCCC3)nc2c1 |
| 1010 | O=C(Cn1nc(N2CCCCCC2)c2ccccc2c1=O)Nc1ccc2c(c1)OCCO2 |
| 724 | Cc1ccc(S(=O)(=O)N2C[C@@H]3C[C@H](NC(=O)c4cccnc4)[C@H]2C3)cc1C |
| 822 | CC(C)CNC(=O)CCc1nc2ccccc2n(CC(=O)NCc2ccccc2Cl)c1=O |
| 651 | Cc1nn(C)c(C)c1CCNC(=O)Nc1ccccc1Br |
| 1030 | CCc1ccc2c(c1)cc(S(=O)(=O)c1ccccc1)c(=O)n2CC(=O)NC1CCCCC1 |
| 755 | COC(=O)c1c(C)[nH]c(C(=O)N2CCCC(C(=O)NCc3ccc(OC)cc3OC)C2)c1C (stereo not given) |
| 673 | Cc1ccccc1NS(=O)(=O)c1cc(-c2[nH]ncc2C(=O)N(C)C)oc1C |
| 1120 | Cc1ccc(-c2nc(CN3C(=O)C(O)(c4ccccc4)c4ccccc43)c(C)o2)cc1 (stereo not given) |
| 958 | O=C1/C(=C\c2cccs2)Oc2ccccc21 |
| 972 | CC(C)OCCCNC(=O)C(C)n1c(=O)c(C(F)(F)F)nc2ccccc21 (stereo not given) |
| 650 | CCOc1ccc(S(=O)(=O)N2CCCC(C(=O)NCc3cccnc3)C2)cc1 (stereo not given) |
| 963 | COC(=O)CNC(=O)Cc1c(C)nn(-c2nc(-c3ccc(C)cc3)cs2)c1C |
| 583 | CCNC(=O)c1c(-c2cccnc2)noc1C |
| 858 | COc1ccc(CCc2nc(Cn3c(C)nc4ccccc4c3=O)no2)cc1 |
| 724 | CCCC(=O)Nc1ccc2c(c1)Sc1ncccc1C(=O)N2CC |
